The source made the active and inactive calls.
Columns and labels:
[1] = target: Peroxisome proliferator-activated receptor gamma/Nuclear receptor coactivator 1 (Homo sapiens, UniProt P37231); test: (§1) TR-FRET dose response biochemical High Throughput Screening assay for agonists of the steroid receptor coactivator 1 (SRC-1) recruitment by the peroxisome proliferator-activated receptor gamma (PPAR gamma): non-selective agonists. [Related pubchem assays (depositor defined):AID1300, AID1808, AID504735, AID631]; format: protein assay
[2] = target: Peroxisome proliferator-activated receptor gamma/Nuclear receptor coactivator 3 (Homo sapiens, UniProt P37231); test: as §1, with “3 (SRC-3)” for “1 (SRC-1)”, “assays: 1301 (Confirmation screen.), 1048 (Primary screen.)]” for “assays (depositor defined):AID1300, AID1808, AID504735, AID631]”; format: functional
[3] = target: Peroxisome proliferator-activated receptor gamma/Nuclear receptor coactivator 2 (Homo sapiens, UniProt P37231); test: TR-FRET dose response biochemical High Throughput Screening assay for agonists of the steroid receptor coactivator 2 (SRC-2) recruitment by the peroxisome proliferator-activated receptor gamma (PPAR gamma): non-selective agonists. [Related pubchem assays: 1297, 1032 ]; format: functional
P388/ADR = test: cells; format: functional; conditions: Mus musculus
SN12K1 = test: cells; format: functional; conditions: Homo sapiens
P388 = test: cells; format: functional; conditions: Mus musculus
Cytochrome P450 2C19 = Cytochrome P450 2C19 (Homo sapiens, UniProt P33261); test: Cytochrome panel assay with activity outcomes. Panel member name: p450-cyp2c19 Compounds with AC50 equal or less than 10 uM are considered active; format: functional; conditions: read-out: AC50
[4] = target: T1, Sentrin-specific protease 8 (Homo sapiens, UniProt Q96LD8); format: functional;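 further: kinetic enzyme assay of SENP8 cleaving a Nedd8 protein substrate, dose-response confirmation of screening hits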
T1 sequence (Q96LD8 whole entry): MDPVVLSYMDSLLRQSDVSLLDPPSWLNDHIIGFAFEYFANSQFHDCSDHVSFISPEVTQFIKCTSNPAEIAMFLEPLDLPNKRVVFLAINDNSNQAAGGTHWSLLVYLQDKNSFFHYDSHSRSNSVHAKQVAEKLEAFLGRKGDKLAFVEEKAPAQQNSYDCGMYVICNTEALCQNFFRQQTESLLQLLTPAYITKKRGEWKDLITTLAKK

[5] = target: T2, E3 ubiquitin-protein ligase XIAP (Homo sapiens, UniProt P98170); test: Counter Screen using XIAP-Bir3 for Chemical Antagonists of Bir1/2 domains of IAP-family anti-apoptotic proteins. [Related pubchem assays (depositor defined):AID1018, AID1449, AID1514, AID1638, AID1749, AID1750, AID488957, AID488963]
[6] = target: T2, E3 ubiquitin-protein ligase XIAP; test: small molecules displacing peptide from XIAP – biochemical, IAP family, fluorescence polarization (AID 1018); format: functional
[7] = activation of miR-122 Renilla sensor silencing – cell-based, Huh7 psiCHECK-miR122, Renilla luciferase, cherry-picked, dose response (AID 651956); format: functional;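 further: huh7 hepatoma cells stably carrying a psiCHECK-2 miR-122 sensor plasmid; renilla luciferase signal reporting endogenous miR-122 activity after 48 h compound exposure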
[8] = general mammalian cell viability loss – activator set, cherry-pick, cytotoxicity control for miR-122 modulator project, dose response (AID 720690); format: functional, cell-based;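 further: HEK293T human cells scored for general mammalian cytotoxicity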
[9] = viability of uninfected HEp-2 cells – cell-based, HTS, cytotoxicity control for RSV inhibitor project, dose response (AID 2410); format: functional; conditions: human respiratory syncytial virus
[10] = viability of PTEN-deleted HCT116 cells – cell-based, HCT116 PTEN knockout, dose response (AID 1047); format: functional;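 further: HCT116 colon tumor cells with PTEN knocked out; cells exposed to compound for 60 hours before readout; potency for loss of cell viability measured by luminescence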
[11] = viability of HCT116 lacking mutant beta-catenin – cell-based, human colon tumor, dose response (AID 1045); format: functional;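 further: HCT116 colon tumor cells with beta catenin knocked out; cells exposed to compound for 60 hours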
[12] = THP-1 cell cytotoxicity, dose response, cytotoxicity control for non-replicating M. tuberculosis project (AID 489025); format: functional
cells = format: functional
[13] = target: Heat shock protein HSP 90-alpha (Homo sapiens, UniProt P07900); format: functional, organism-based
Prothrombin = Prothrombin (Homo sapiens, UniProt P00734); test: Thrombin 1536 HTS Dose Response Confirmation. [Related pubchem assays: 1046 (Thrombin 1536 HTS; hits were confirmed in this assay)]; format: functional
[14] = off-target signal loss in HeLa-CEM21 co-culture – HeLa F-luc CTL cells, cherry-picked, counter-screen for HIV-1 Env fusion inhibitor project, dose response (AID 652040); format: functional, cell-based;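 further: potency for signal decrease marking cytotoxic or nonspecific inhibition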
[15] = HIV-1 AD8 envelope cell-cell fusion blockers – cherry-pick, dose response (AID 652062); format: functional, cell-based;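 further: luciferase signal from cell-cell fusion driven by HIV-1 clade B AD8 Env; potency is for inhibitors of fusion seen as a drop in luminescence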

T2 sequence (P98170 whole entry): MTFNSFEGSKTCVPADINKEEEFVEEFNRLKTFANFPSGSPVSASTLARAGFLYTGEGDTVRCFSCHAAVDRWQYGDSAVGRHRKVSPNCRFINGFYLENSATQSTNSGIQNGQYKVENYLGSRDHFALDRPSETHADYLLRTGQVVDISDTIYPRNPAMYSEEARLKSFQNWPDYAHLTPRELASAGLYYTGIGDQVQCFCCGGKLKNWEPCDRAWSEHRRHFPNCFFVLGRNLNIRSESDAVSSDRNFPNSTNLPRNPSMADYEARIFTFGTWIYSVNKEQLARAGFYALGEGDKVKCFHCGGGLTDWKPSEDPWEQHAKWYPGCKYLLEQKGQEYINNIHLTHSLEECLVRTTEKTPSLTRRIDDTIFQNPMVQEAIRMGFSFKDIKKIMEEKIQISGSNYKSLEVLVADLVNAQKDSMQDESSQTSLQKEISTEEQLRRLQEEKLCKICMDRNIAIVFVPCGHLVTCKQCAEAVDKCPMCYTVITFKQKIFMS
Chain of Peroxisome proliferator-activated receptor gamma/Nuclear receptor coactivator 3 (P37231 whole entry): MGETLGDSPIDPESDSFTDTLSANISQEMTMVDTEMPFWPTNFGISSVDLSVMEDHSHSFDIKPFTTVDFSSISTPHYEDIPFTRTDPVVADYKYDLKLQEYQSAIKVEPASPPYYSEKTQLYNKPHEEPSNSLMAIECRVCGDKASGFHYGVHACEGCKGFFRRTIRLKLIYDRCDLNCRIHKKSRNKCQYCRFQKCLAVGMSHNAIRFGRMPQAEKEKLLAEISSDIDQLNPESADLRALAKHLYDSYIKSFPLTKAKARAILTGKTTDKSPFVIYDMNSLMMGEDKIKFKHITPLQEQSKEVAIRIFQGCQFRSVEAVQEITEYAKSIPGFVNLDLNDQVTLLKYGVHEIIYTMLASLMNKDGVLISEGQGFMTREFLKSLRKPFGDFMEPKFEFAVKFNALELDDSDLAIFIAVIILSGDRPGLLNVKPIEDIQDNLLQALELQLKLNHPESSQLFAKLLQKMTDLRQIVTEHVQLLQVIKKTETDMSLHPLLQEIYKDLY
Chain of Peroxisome proliferator-activated receptor gamma/Nuclear receptor coactivator 3 (Q9Y6Q9 whole entry, further chain): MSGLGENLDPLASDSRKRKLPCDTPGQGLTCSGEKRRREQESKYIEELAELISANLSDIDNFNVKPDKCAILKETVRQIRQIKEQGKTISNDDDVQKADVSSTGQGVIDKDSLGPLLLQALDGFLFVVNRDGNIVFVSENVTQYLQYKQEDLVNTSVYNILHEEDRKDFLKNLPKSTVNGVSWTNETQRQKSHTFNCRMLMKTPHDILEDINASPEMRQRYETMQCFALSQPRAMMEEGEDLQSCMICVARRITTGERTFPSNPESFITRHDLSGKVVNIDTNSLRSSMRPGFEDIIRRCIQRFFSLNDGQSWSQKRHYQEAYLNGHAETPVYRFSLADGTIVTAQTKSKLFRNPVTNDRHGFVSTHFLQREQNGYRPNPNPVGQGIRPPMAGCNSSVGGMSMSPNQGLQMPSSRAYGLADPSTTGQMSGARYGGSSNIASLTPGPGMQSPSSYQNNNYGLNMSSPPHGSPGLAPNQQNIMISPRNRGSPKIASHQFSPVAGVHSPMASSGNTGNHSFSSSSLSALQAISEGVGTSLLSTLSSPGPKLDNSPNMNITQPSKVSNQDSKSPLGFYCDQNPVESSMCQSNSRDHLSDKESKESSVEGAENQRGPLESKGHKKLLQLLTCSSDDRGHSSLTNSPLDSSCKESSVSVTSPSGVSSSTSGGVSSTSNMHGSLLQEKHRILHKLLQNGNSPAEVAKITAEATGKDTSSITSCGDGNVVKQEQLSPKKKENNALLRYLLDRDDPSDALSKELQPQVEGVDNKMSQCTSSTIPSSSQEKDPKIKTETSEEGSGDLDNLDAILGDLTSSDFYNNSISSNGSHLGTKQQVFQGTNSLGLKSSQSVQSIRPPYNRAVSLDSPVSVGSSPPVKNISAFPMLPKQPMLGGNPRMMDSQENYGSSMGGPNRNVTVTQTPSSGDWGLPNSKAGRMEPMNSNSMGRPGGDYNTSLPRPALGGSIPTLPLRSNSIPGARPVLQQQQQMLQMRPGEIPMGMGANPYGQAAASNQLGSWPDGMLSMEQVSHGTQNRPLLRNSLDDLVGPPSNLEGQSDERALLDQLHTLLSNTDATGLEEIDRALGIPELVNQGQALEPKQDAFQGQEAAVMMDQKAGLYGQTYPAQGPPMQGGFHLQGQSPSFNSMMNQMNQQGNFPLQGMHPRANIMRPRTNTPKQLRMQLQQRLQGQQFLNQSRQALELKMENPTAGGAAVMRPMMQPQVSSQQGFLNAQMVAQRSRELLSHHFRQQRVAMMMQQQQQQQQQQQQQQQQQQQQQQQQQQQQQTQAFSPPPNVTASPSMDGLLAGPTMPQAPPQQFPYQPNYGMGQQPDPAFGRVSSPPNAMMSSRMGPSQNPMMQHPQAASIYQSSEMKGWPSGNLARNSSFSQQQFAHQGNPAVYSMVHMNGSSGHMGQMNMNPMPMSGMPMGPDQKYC
Chain of Peroxisome proliferator-activated receptor gamma/Nuclear receptor coactivator 2 (P37231 whole entry): as the sequence (P37231 whole entry) above
Chain of Peroxisome proliferator-activated receptor gamma/Nuclear receptor coactivator 2 (Q15596 whole entry, further chain): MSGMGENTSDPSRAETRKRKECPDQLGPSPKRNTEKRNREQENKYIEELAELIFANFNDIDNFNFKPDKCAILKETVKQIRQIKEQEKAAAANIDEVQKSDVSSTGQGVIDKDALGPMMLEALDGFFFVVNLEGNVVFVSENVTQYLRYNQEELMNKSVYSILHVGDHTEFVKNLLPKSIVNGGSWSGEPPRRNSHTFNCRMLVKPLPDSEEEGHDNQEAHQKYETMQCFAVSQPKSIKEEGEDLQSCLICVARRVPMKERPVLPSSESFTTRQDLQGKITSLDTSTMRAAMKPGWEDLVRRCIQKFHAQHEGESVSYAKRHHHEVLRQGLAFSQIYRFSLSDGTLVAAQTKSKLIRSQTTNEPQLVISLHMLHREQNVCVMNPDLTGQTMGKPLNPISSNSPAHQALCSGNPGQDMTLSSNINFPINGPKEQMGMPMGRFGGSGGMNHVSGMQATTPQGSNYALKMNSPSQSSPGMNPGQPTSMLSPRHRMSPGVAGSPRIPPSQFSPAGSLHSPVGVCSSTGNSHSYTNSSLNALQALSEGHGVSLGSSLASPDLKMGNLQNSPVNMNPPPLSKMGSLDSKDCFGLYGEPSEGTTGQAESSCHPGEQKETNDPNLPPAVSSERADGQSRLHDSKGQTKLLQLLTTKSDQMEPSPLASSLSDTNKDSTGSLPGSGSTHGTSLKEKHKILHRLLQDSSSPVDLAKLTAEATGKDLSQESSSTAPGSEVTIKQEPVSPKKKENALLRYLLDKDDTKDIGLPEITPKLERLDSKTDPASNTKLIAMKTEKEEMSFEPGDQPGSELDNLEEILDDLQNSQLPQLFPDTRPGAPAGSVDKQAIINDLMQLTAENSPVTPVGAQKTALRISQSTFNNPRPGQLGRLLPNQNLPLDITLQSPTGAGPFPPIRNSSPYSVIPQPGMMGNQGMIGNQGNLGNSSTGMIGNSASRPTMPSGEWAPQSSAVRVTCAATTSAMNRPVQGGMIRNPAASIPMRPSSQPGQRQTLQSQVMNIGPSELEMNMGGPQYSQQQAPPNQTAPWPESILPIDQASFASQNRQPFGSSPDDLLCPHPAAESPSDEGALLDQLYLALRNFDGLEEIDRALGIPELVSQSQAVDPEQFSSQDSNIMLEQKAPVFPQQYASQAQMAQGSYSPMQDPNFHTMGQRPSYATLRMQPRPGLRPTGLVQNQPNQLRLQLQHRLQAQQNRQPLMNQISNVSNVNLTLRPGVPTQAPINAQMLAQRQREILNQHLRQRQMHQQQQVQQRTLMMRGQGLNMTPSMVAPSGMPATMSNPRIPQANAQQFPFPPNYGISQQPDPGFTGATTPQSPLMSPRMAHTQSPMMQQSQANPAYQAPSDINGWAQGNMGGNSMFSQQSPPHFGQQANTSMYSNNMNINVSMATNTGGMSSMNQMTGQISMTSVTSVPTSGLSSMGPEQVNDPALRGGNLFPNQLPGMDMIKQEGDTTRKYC
Chain of Cytochrome P450 2C19 (P33261 whole entry): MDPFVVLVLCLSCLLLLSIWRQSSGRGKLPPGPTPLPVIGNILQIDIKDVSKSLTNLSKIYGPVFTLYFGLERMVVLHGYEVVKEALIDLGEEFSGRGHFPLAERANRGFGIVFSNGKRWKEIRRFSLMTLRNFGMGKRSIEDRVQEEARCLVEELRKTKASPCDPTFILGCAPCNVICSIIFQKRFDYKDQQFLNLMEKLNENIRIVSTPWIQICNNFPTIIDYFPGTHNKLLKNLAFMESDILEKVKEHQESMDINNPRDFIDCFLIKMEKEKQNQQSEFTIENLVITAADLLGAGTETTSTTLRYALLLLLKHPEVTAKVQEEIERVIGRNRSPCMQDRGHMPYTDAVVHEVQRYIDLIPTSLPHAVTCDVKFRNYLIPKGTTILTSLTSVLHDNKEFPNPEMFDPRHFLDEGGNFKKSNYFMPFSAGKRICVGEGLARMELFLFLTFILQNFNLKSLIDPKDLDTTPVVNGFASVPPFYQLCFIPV

SMILES: CN(Cc1ccccc1)C(=O)CSc1cc(=O)n(C)c2ccccc12
- EC50 [1]: > 79.4 µM (inactive)
- EC50 [2]: > 79.4 µM (not active)
- EC50 [3]: > 79.4 µM (not active)

SMILES: COc1ccc(/C=C2\CCNC2=O)cc1
- GI50 (P388/ADR): 82.4 µM (inactive)
- GI50 (SN12K1): > 100 µM (inactive)
- GI50 (P388): > 100 µM (inactive)

SMILES: CCCCOC(=O)CNc1nnc(S)nc1O
- EC50 [1]: 5 µM (active)
- EC50 [2]: 91.3 µM (not active)
- EC50 [3]: 4.23 µM (active)

SMILES: Cc1c2cnccc2c(C)c2c1c1ccccc1n2CCOC(=O)c1ccccc1
- AC50 (Cytochrome P450 2C19): 0.794 µM (inconclusive)
- GI50 (P388/ADR): 9.23 µM (inactive)
- GI50 (SN12K1): 10.3 µM (inactive)
- GI50 (P388): 4.95 µM (inactive)

SMILES: O=C(Nc1c(-c2ccccc2)[nH][nH]c1=O)c1cnccn1
- IC50 [4]: 42.5 µM (active)

SMILES: COC(=O)/C=C/C(=O)N1CCN(c2ccccc2)CC1
- IC50 [5]: > 100 µM (inactive)
- IC50 [6]: > 100 µM (not active)

SMILES: C/C=C/c1ccc2c(c1)O[C@@H](CN(C)CC1CCCC1)[C@H](C)CN([C@@H](C)CO)S2(=O)=O
- AC50 [7]: 42.1 µM (active)
- AC50 [8]: 22.4 µM (active)

SMILES: COc1ccc(S(=O)(=O)CCC(=O)NC2CCCCC2)cc1
- IC50 [5]: > 100 µM (inactive)
- IC50 [6]: > 100 µM (not active)

SMILES: CC(NC(=O)C(C)NC(=O)C(N)CCP(C)(=O)O)C(=O)O (stereo not drawn)
- GI50 (P388/ADR): > 100 µM (inactive)
- GI50 (SN12K1): > 100 µM (inactive)
- GI50 (P388): > 31.6 µM (inactive)

SMILES: OC(c1cc(C(F)(F)F)nc2c(Cl)cc(Cl)cc12)C1CCCCN1 (stereo not drawn)
- CC50 [9]: 15.8 µM (active)
- AC50 [7]: 21.6 µM (active)

SMILES: CC1C(=O)C(C)C(c2cccs2)N(N=O)C1c1cccs1 (stereo not drawn)
- GI50 (P388/ADR): 36 µM (inactive)
- GI50 (SN12K1): > 100 µM (inactive)
- GI50 (P388): 39.4 µM (inactive)

SMILES: NC(=O)c1ccc(/N=C/c2ccc([N+](=O)[O-])s2)cc1
- EC50 [10]: 5.94 µM (active)
- EC50 [11]: 5.3 µM (active)
- CC50 [12]: 19.2 µM (active)
- IC50 (cells): 13.4 µM (active)
- AC50 [13]: 1.98 µM (active)
- IC50 [4]: 2.47 µM (active)

SMILES: CC(C)NC(=O)c1ccc(C(C)C)cc1
- IC50 (Prothrombin): > 50 µM (not active)

SMILES: Cn1c(SCc2nc(-c3ccc(Cl)cc3)no2)nnc1-c1cccs1
- AC50 [14]: 3.1 µM (active)
- AC50 [15]: 9.06 µM (active)

SMILES: CCCOc1cccc(C(=O)N(Cc2ccco2)C2CCS(=O)(=O)C2)c1 (stereo not drawn)
- IC50 (Prothrombin): > 50 µM (not active)

Reference: ChEMBL document CHEMBL1201862, “PubChem BioAssay data set” (2004)
